# Assay results taken from article PMC10406827, “Targeted dosing for susceptible heteroresistant subpopulations may improve rational dosage regimen prediction for colistin in broiler chickens” (Scientific Reports, 2023).
# Like-named read-outs stand apart in the source and are kept apart here. Marks after values point to notes of the source that are not given here. Where a SMILES comes first, the peptide text is derived from it. Bridges are numbered along the chain shown (N, C = ends). [ ]: non-standard residue; d: D form. The star is where a group is joined. X1 = CC[C@H](C)CCCCC(=O)*; Dab = NCC[C@H](N)C(=O)O
# How the values were obtained:
# [1] = Colistin activity loss after centrifugation of medium (colispot microbiological assay); format: in vitro ADME; details: colispot method
# [2] = test system: E. coli; details: ref EUCAST; cited from earlier work
# Experimental: Colistin is used in chickens for the treatment and metaphylaxis (following confirmation of disease within the flock) of susceptible (ECOFF = 2 mg/L) gastro-intestinal non-invasive E. coli infections. The dose recommended for administration via drinking water is 75,000 IU of colistin (as sulphate) per kg body weight per day for 3–5 consecutive days in Europe. As colistin is not absorbed from the gastrointestinal tract, its effect is exerted locally within the intestinal lumen and the wall of the intestine. As such, there is an opportunity to develop a PK model to predict the gut concentration t ...
# [3] = Colistin concentration in luminal intestinal (jejunum and ileum) content, UHPLC-MS/MS; format: in vivo, Ross 308 broiler chickens; details: Ross 308 broiler; for tissue level at time at 54 h: po, jejunum and ileum content, 4 birds per timepoint, read-out: Geometric mean colistin concentration in luminal intestinal content
# Experimental: Pharmacokinetic data from in vivo clinical and supra-clinical doses via drinking water and oral gavage were collected as follows. Birds were provided a 14-h photoperiod aligned with onset of dosing (0 h) at 07:00. Birds were housed together upon arrival and separated at 13-days into the following dosing groups 75,000 IU/kg oral gavage (n = 17), 150,000 IU/kg oral gavage (n = 17), 75,000 IU/kg/day drinking water (n = 38), 100,000 IU/kg/day drinking water (n = 38), and 150,000 IU/kg/day drinking water (n = 38), the remaining birds constituted an untreated control group (n = 27) housed in another room. Colistin was administered as a single oral gavage via manual syringe directly into the crop, with the volume calculated based on bird weight immediately prior to dosing. For colistin administration via drinking water, dose was calculated based on average bird weight and water consumption measured the preceding day. It was refreshed every 24 h over the 3-day dosing. The “real” dose received every 24 h was back calculated based on measured water consumption for each dosing period.
# For administration via drinking water, 4 birds were sampled at each of the following timepoints pre-dose (0 h), during-dose (12, 36 and 54 h) and post-dose (72, 75, 76, 78, 84 and 96 h). Following oral gavage, 2 birds were sampled at each of the following timepoints 0 h (pre-dose), 1 h, 3 h, 6 h, 12 h, and 24 h (post-dose). Birds were sacrificed through cervical dislocation. The whole small intestine was excised from the duodenum to the large intestine, including the caeca, using individually wrapped and sterilised sets of dissection apparatus were used to avoid cross-contamination between birds. The jejunum and ileum were resected (between proximal ligature after duodenum, and distal ligature before the large intestine) and luminal intestinal content (LIC) was collected as an homogenous sample extracted from the small intestine via peristaltic massage in a proximal-to-distal direction as previously described, with the jejunum/ileum representing the principle compartment for potentially pathogenic E. coli (as compared to the large intestine). All samples were stored at − 80 °C prior to further analysis for no-more than 3 months. Following a previously validated method, colistin was extracted from the matrix using solid-phase extraction with a methanol:water (1:2; v/v) solution. Polymyxin B1 was used as an internal standard. Colistin A and colistin B, (main components of colistin), were separated, detected and measured using ultra-high-performance liquid chromatography coupled with tandem mass spectrometry (UHPLC-MS/MS). Total colistin was calculated as the ratio of the sum of peak areas of colistin A and B over the polymyxin B1 peak area.
# [4] = ref Bergen et al.[46], cited from earlier work
# Experimental: For the bacteriological response, the cumulative area under the curve of the total bacterial count over 24 h (AUCbact24h) was used. Data were then log10 transformed for regression. As LOQ was set at 100 CFU/mL, it was considered that re-growth would not occur if the total bacterial population decreased to this value. PK/PD indices are conventionally determined using protein unbound (free; f) concentration. Bergen et al.[46] indicated practical equivalence of total and unbound colistin in CAMHB (unbound fractions of 0.96 and 0.95 at 10 and 30 mg/L respectively). Furthermore, as colistin binding ...
# [5] = test system: E. coli N100; mcr-negative; details: cited from earlier work
# Source text: (§1) Supplement 41598_2023_39727_MOESM1_ESM.docx, table 2: Supplementary Table 2: Typical value (tv) and median parameter estimates and 95% confidence intervals of the semi-mechanistic model. | column: Typical value (tv) estimate; Median (Bootstrap) estimate
# [6] = test system: mcr-negative and mcr-positive E. coli isolates; details: cited from earlier work
# Source text: as §1
# [7] = test system: E. coli 120h_B3_5; mcr-1; details: cited from earlier work
# Source text: as §1
# [8] = 1-compartment population intestinal PK model of colistin; format: in vivo, broiler chickens; details: for Amount of colistin base transit through the small intestine / Amount of colistin sulphate transit through the small intestine: Eq. (1)
# Experimental: Colistin (converted in mg/kg BW) was deposited in a dosing compartment (crop), either as a single bolus input representing an oral-gavage administration or as a daily zero-order input lasting 24 h representing a continuous dose via drinking water. The colistin content pooled jejunum and ileum content (expressed as mg colistin/kg intestinal content) was assumed to be well mixed and was fitted with a one-compartment model. The model was parametrised with 3 parameters: “clearance” that is here an intestinal flow rate (expressed in kg intestinal content/kg BW h^−1), “volume of distribution”, expressed in kg intestinal content/kg BW) and absorption rate constant for extravascular administration (Ka expressed in h^−1).
# Between subject variability (BSV) was applied to the clearance (Cl) described using an exponential model, as in the following general equation: Pi=tvP∗exp(ηPi) where tvP is the typical value of the parameter within the population and the random parameter ηPi (eta) represents the deviation from the typical value for the ith individual. Etas are assumed normally distributed with a mean of 0 and a variance of ω^2.
# For model evaluation, a significant decrease (> 6.635 corresponding to p < 0.01 for one degree of freedom) in the Bayesian information criterion (BIC) as well as observation of observed vs. population, individual predicted concentrations plots, and visual predictive checks (VPC) were utilized. All concentrations lower than the LOQ of the bioanalytical method (1.1 mg/kg) were considered as censored and managed with the M3 approach and using the Laplace engine by Phoenix™ v8.3.0.5005 (Certara, St. Louis, Missouri). Residual variability was described with a multiplicative error model, providing optimal fit compared to additive or additive/multiplicative models. Residual variability was low due to the single random effect on the clearance considering only a single-point for each bird (due to the nature of the destructive sampling) and the near normal distribution of the Etas. The final population model was evaluated using a Visual Predictive Check (VPC; n = 300) that compares observed with predicted quantiles (10th, 50th and 90th percentiles).
# [9] = test system: E. coli population; details: 75,000 IU/kg BW/day for 3-days; cited from earlier work
# Source text: (§2) In this situation treatment is used to lower the number of resident E. coli in the gastrointestinal tract and control gut overgrowth, in a similar fashion to selective decontamination[37],[38]. As the outcome is not to achieve complete eradication (gut sterilisation), a lower effect than predicted by the PK/PD index critical value may be enough to reduce the bacterial burden within the gastrointestinal tract.
# [10] = 75,000 IU/kg BW/day for 3-days; cited from earlier work
# Source text: as §2
# [11] = targeted dose 100,000 IU/kg BW/day
# [12] = targeted dose 150,000 IU/kg BW/day
# [13] = typical value, 1-compartment intestinal PK model
structure (smiles),measurement,setting,value
"CC[C@H](C)CCCCC(=O)N[C@@H](CCN)C(=O)N[C@H](C(=O)N[C@@H](CCN)C(=O)N[C@H]1CCNC(=O)[C@H]([C@@H](C)O)NC(=O)[C@H](CCN)NC(=O)[C@H](CCN)NC(=O)[C@H](CC(C)C)NC(=O)[C@@H](CC(C)C)NC(=O)[C@H](CCN)NC1=O)[C@@H](C)O [colistin, colistin sulphate] (X1-[Dab]T[Dab][Dab][Dab][dL]L[Dab][Dab]T; lactam 4-C)",Colistin activity loss following centrifugation,"[1]; from CAMHB, E. coli ATCC 25922 bacterial lawn (microbiological assay, not LCMS)",2%
same,Colistin activity loss following centrifugation,"[1]; from IGM (intestinal growth medium), binding to particulate matter, E. coli ATCC 25922 bacterial lawn",27%
same,ECOFF,[2],2 mg/L
same,tissue level at time at 1 h,"[3]; 75000 IU/kg, oral gavage 75,000 IU/kg, after 1 h, 2 birds per timepoint",21200 ng/g
same,tissue level at time at 3 h,"[3]; 150000 IU/kg, oral gavage 150,000 IU/kg, after 3 h, 2 birds per timepoint",45600 ng/g
same,tissue level at time at 54 h,"[3]; 75000 IU/kg/day, 75,000 IU/kg via drinking water",4890 ng/g
same,tissue level at time at 54 h,"[3]; 100000 IU/kg/day, 100,000 IU/kg via drinking water",6660 ng/g
same,tissue level at time at 54 h,"[3]; 150000 IU/kg/day, 150,000 IU/kg via drinking water",8600 ng/g
same,Unbound fraction of colistin,[4]; in CAMHB at 10 mg/L,0.96
same,Unbound fraction of colistin,[4]; in CAMHB at 30 mg/L,0.95
same,"F2 (potentiation factor for Kdrug on S1), typical value (tv) estimate",[5]; for mcr-negative isolates,12.66 scalar
same,"Emax (S1), typical value (tv) estimate","[5]; negative mcr isolates, Emax (S2) x F2",34.12** h^-1
same,"EC50_S1, typical value (tv) estimate","[5]; sub-population S1, reproduced PD parameters",0.083 µg/mL
same,"EC50_S2, typical value (tv) estimate",[5]; sub-population S2,0.115 µg/mL
same,"Emax (S2), typical value (tv) estimate","[6]; both mcr-negative and mcr-positive isolates, maximal increase in kill effect",2.69 h⁻¹
same,"gamma_S1 (Hill coefficient), typical value (tv) estimate",[6]; sub-population S1,4.09 scalar
same,"gamma_S2 (Hill coefficient), median (bootstrap) estimate",[6]; sub-population S2,3.80 scalar
same,"gamma_S2 (Hill coefficient), typical value (tv) estimate",[6]; sub-population S2,3.22 scalar
same,"F2 (potentiation factor for Kdrug on S1), typical value (tv) estimate","[7]; for mcr-positive isolates, calculated from covariate parameter",3.76* scalar
same,"Emax (S1), typical value (tv) estimate","[7]; mcr-positive isolates, Emax (S2) x F2",10.13** h^-1
same,"EC50_S1, typical value (tv) estimate",[7]; sub-population S1,2.760 µg/mL
same,"EC50_S2, typical value (tv) estimate",[7]; sub-population S2,2.174 µg/mL
same,Overall MTT in digestive tract (mean transit time crop to jejunum),[8]; secondary parameter,4.5 h
same,ka HL (entry rate half-life),[8]; secondary parameter,3.14 h
same,Amount of colistin base transit through the small intestine,"[8]; targeted dose 75,000 IU/kg BW/day","70,534 IU/kg BW/day"
same,Amount of colistin base transit through the small intestine,[8]; [11],"91,627 IU/kg BW/day"
same,Amount of colistin sulphate transit through the small intestine,[8]; [11],3.05 mg/kg BW/day
same,Amount of colistin base transit through the small intestine,[8]; [12],"139,935 IU/kg BW/day"
same,Amount of colistin sulphate transit through the small intestine,[8]; [12],4.66 mg/kg BW/day
same,"Cl (intestinal clearance), estimate (between subject variability %)",[8]; [13],29.1 (40.5%) g intestinal content/kg BW/h
same,V (intestinal volume of distribution),[8]; [13],5.14 g intestinal content/kg BW
same,ka (entry rate constant from crop to jejunum),[8]; [13],0.221 h⁻¹
same,Reduction in the E. coli population,[9],~1000 fold
same,Maximum intestinal concentrations,[10],greater than 5 mg/kg
